“Also recorded” adds a separate entry of the source.
Legend:
[1] = smoking cessation; cited from earlier work
Male Sprague Dawley rats = conditions: rat, in vivo
Description: Male Sprague Dawley rats obtained from Charles River (Portage, Mich.) and weighing 200-225 g at their arrival were used in this study. Rats were housed in groups of two in a room with a reverse 12 h light/12 h dark cycle (lights off at 07:30 AM). All experiments were conducted during the dark phase of the cycle. Animals were acclimatized for 7 days with water and chow (Teklad Diets, Madison, Wis.) and handled for 3 times before the experiments were started. Throughout all operant procedures, rats were food restricted (received 20 g of chow daily) with water freely accessible.
5 was dissolved in a vehicle of 0.9% saline and injected subcutaneously at doses of (0.0, 0.3, 1.0 mg/kg). The injection volume was 1 ml/kg. […] (−)-Nicotine hydrogen tartrate salt and alcohol were purchased from Sigma (St. Louis, Mo.). Alcohol was diluted to a concentration of 10% v/v in water and made available orally. Nicotine solution for i.v. injection (30 micrograms/kg/0.1 ml infusion) was obtained by dissolving the salt in 0.9% saline and the pH adjusted to 7.0-7.4 with 3 M sodium hydroxide. Nicotine self-administration dose is reported as free base concentration.
The self-administration boxes consisted of operant conditioning chambers (Med Associates, Inc., St. Albans, Vt.) enclosed in lit, sound attenuating, ventilated environmental cubicles. […]

[2] = pharmacokinetics, blood content and blood brain barrier penetration after sc administration; conditions: rats, 2.0 mg/kg sc

Row | SMILES | cessation rates in most clinical trials [1] | nicotine self-administration analysed in 30-min intervals (Male Sprague Dawley rats) | time to maximal concentration in blood and brain [2] [min]
1 | CC(NC(C)(C)C)C(=O)c1cccc(Cl)c1 (stereo not shown) [bupropion] | 15-25% | – | –
2 | C[C@H]1CNC(=N)N1CCc1cccnc1 [Compound 5, (S)-5-Methyl-1-(2-(pyridin-3-yl)ethyl)imidazolidin-2-imine] | – | decreased nicotine self-administration during the first 30 min but not during the remaining 90-min period; also recorded: reducing nicotine self-administration only in the first 30 min | ≤ 10
3 | c1cnc2cc3c(cc2n1)[C@@H]1CNC[C@H]3C1 [varenicline] | 23-40% | – | –
